Data on 2 compounds can be found in publication PMC3565575 (Bioorganic & medicinal chemistry, 2010).

Experiment [1] deals with SKOV-3 (human ovarian adenocarcinoma). Kind of experiment: Multi-plex cytotoxicity assay, SKOV-3. It counts as cell-based. The note with it: SKOV-3 cells.
Another experiment has as its target sigma-1 receptor (Cavia porcellus, UniProt Q60492). The experiment is described as follows: Sigma-1 receptor competitive binding against. The note with it: Sigma 1 K1 values (nM) (± SEM, n=3), R^2 value, guinea pig liver membranes, 10 nM (+)-[3H]-pentazocine, brackets: SEM.

sigma-1 receptor, sequence (Q60492 whole entry): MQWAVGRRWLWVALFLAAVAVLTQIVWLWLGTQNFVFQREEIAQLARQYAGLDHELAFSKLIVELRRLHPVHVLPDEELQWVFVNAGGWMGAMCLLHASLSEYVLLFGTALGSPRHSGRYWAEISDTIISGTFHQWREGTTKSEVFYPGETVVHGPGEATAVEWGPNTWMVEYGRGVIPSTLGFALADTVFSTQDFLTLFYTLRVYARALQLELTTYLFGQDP

Consider `CCCCN(CCCC)CCCc1ccc(F)cc1` [compound 9, N.N-Dibutyl-3-(4-fluorophenyl)propylamine], for which, in experiment [1], the “Growth inhibition (in words)” value is on record as “the only cell line whose growth is inhibited by compound 9”.
`CCCN(Cc1cccc([N+](=O)[O-])c1)C(=O)CCc1ccc(F)cc1` [compound 6, 3-(4-Fluorophenyl)-N-(3-nitrobenzyl)-N-propylpropanamide] registered a Ki at sigma-1 receptor of more than 100000 nM.
